In patent US8802702B2, “Compounds for reducing drug resistance and uses thereof” (The General Hospital Corporation, priority 2009, dated 2014):
Where two headings read alike, the source gives them in different places.

Columns and labels:
OVCAR8TR cells = experiment: Reversal of drug resistance, cytotoxicity (MTT) assay in OVCAR8TR; type: cell-based, human; conditions: anti-cancer drug alone, no NSC23925, read-out: OVCAR8TR IC50
Method: FIGS. 1 (a-b) are graphs that depict the effects of NSC23925 on drug sensitivity in ovarian cancer cells; 1(a) depicts the effects of NSC23925 on sensitive (SKOV-3) and resistant (SKOV-3TR) cells; 1(b) depicts the effects of NSC23925 on sensitive (OVCAR8) and resistant (OVCAR8TR) cells. Cells were treated with the paclitaxel and NSC23925 in RPMI1640 complete media at the indicated concentrations. The relative sensitivity of each line to paclitaxel was determined by MTT assay, as described below in the Examples section, 6 days post treatment. A: Reversal of paclitaxel resistance by NSC23925 in SKOV-3TR cells. B: Reversal of paclitaxel resistance by NSC23925 in OVCAR8TR cells.
(§1) Drug cytotoxicity was assessed in vitro using the MTT assay. SKOV-3 and SKOV-3TR cells were used herein. Briefly, 2×10^3 cells per well were plated in 96-well plates in culture medium (RPMI 1640 supplemented with 10% fetal bovine serum and penicillin/streptomycin) containing increasing concentrations of drug. After 7 days of culture, 10 μl MTT (5 mg/ml in PBS, obtained from Sigma) were added to each well and the plates were incubated for 4 h. The resulting formazan product was dissolved with acid-isopropanol and the absorbance at a wavelength of 490 nm (A490) was read on a SPECTRAmax® Microplate Spectrophotometer (Molecular Devices, Sunnyvale, Calif.). The absorbance values were normalized by assigning the value of the control line in the medium without drug to 1.0 and the value of the no cell control to 0. Experiments were performed in triplicate.

SKOV-3TR cells = experiment: Reversal of drug resistance, cytotoxicity (MTT) assay in SKOV-3TR; type: cell-based; conditions: anti-cancer drug alone, no NSC23925, read-out: SKOV-3TR IC50
Method: FIGS. 1 (a-b) are graphs that depict the effects of NSC23925 on drug sensitivity in ovarian cancer cells; 1(a) depicts the effects of NSC23925 on sensitive (SKOV-3) and resistant (SKOV-3TR) cells; 1(b) depicts the effects of NSC23925 on sensitive (OVCAR8) and resistant (OVCAR8TR) cells. […] The relative sensitivity of each line to paclitaxel was determined by MTT assay, as described below in the Examples section, 6 days post treatment. […]
as §1, with “After 7 days of culture, 10 μl MTT (5 mg/ml in PBS, obtained from Sigma) were added to each well and the plates were incubated for 4 h.” left out

KHOSR2 cells = experiment: Reversal of drug resistance, cytotoxicity assay in KHOSR2; type: cell-based, human; conditions: anti-cancer drug alone, no NSC23925, read-out: KHOSR2 IC50
[1] = background statement; cited from earlier work

| SMILES | IC50 (OVCAR8TR cells; Homo sapiens, 144 h) | IC50 (SKOV-3TR cells; Homo sapiens, SKOV3TR, 144 h) | IC50 (KHOSR2 cells; Homo sapiens) | IC50 (OVCAR8TR cells) | IC50 (SKOV-3TR cells) | IC50 (KHOSR2 cells) | Reported toxicity / side effects at doses used to modify drug resistance [1] |
| --- | --- | --- | --- | --- | --- | --- | --- |
| COc1cc2c(cc1O)CCN[C@]21CS[C@@H]2c3c(OC(C)=O)c(C)c4c(c3[C@H](COC1=O)N1[C@@H]2[C@H]2c3c(cc(C)c(OC)c3O)C[C@@H]([C@@H]1O)N2C)OCO4 [ET-743, reference compound] | 6 ± 2 nM | 4 ± 2 nM | 175 ± 25 nM |  |  |  |  |
| COc1c(C)cc2c(c1O)[C@@H]1[C@@H]3Cc4c(OC(C)=O)c(C)c5c(c4[C@H](CNC(=O)/C=C/c4cccc(C(F)(F)F)c4)N3[C@@H](O)[C@H](C2)N1C)OCO5 [PM00104, reference compound] |  |  |  | 8 ± 2 nM | 6 ± 1 nM | 143 ± 45 nM |  |
| COc1cccc2c1C(=O)c1c(O)c3c(c(O)c1C2=O)C[C@@](O)(C(=O)CO)C[C@@H]3O[C@H]1C[C@H](N)[C@H](O)[C@H](C)O1 [Doxorubicin, reference compound] | 27620 ± 256 nM | 22340 ± 200 nM | 10300 ± 566 nM |  |  |  |  |
| C/C=C/C[C@@H](C)C(=O)[C@H]1C(=O)N[C@@H](C(C)C)C(=O)N(C)CC(=O)N(C)[C@@H](CC(C)C)C(=O)N[C@@H](C(C)C)C(=O)N(C)[C@@H](CC(C)C)C(=O)N[C@@H](C)C(=O)N[C@H](C)C(=O)N(C)[C@@H](CC(C)C)C(=O)N(C)[C@@H](CC(C)C)C(=O)N(C)[C@@H](C(C)C)C(=O)N1C [PSC 833] |  |  |  |  |  |  | cerebellar ataxia and hyperbilirubinemia toxicities |
| CC(=O)O[C@H]1C(=O)[C@@]2(C)[C@H]([C@H](OC(=O)c3ccccc3)[C@]3(O)C[C@H](OC(=O)[C@H](O)[C@@H](NC(=O)c4ccccc4)c4ccccc4)C(C)=C1C3(C)C)[C@]1(OC(C)=O)CO[C@@H]1C[C@@H]2O [Paclitaxel, reference compound] | 340 ± 32 nM | 310 ± 21 nM | 210 ± 23 nM |  |  |  |  |
